Reference: PMC8136953 (Veterinary Medicine and Science, 2020)
Values joined by “and” are separate entries in the source; they are usually repeats but may differ in a detail not shown here. Identical values can stand only once. Like-named read-outs stand apart in the source and are kept apart here.

Tests used:
[1] = Plasma pharmacokinetics of FLO after a single dietary administration
Procedure: Apparently healthy European seabass averaging about 100 ± 12 g were obtained from a local fish farm (Selonda aquaculture S.A) and distributed in two cages (1 m^3) located within a 50 m^3 cement tank (85 fish/cage). Water was supplied by open flow and oxygen was provided continuously by bubbling air. The water temperature and salinity were 24 ± 1°C and 38‰, respectively. Fish were allowed to acclimate for 7 days prior to experimentation and fed a drug‐free commercial diet at 1.5% body weight (B.W.).
During the trial, the experimental diet was stored at 4°C and was left to obtain ambient temperature before delivery.
Sampling of fish was performed at predetermined time points during and post treatment (Figure 1) after anesthetization with clove oil (40 mg/L). […] At each sampling point, 10 fish were killed by a blow to the head and tissue samples were obtained. Approximately, 2 ml of blood was drawn with a needle (Microlance 23G 11/4 0.6 × 30; Becton Dickinson, Zaragoza, Spain) from the caudal vein at selected time points during treatment and transferred into heparinised test tubes. Plasma was separated from blood samples by centrifugation at 20,160 g for 10 min at 4°C. Moreover for the withdrawal study, muscle plus skin (approximately 5 g) were taken from the anterior dorsal region on days 1, 2, 3, 4 and 6 post treatment. All prepared tissue samples were immediately frozen and stored at −20°C until analysis.
Briefly, 1 ml of plasma sample was placed in a 10 ml polypropylene centrifuge tube with 500 μl of acetonitrile:water (35:65, v/v). […] The homogenised samples were centrifuged (8,000 g for 10 min) and the supernatant was transferred to a 15 ml polypropylene centrifuge tube. The extraction step was repeated twice. The combined extract was then evaporated to dryness at 40°C under a gentle stream of nitrogen. The residue was reconstituted by 1 ml of mobile phase solution. Five milliliter of hexane were added into the tube and after mixing it was subjected to centrifugation for 5 min at 2,150 g prior to the removal of the hexane layer. The afore‐mentioned de‐fatting step was also repeated twice. The water‐based phase was filtered using 0.22 μm nylon filter and the filtrate (200 μl) was then analysed by HPLC.
The column temperature was maintained at 30°C and the injected volume was 200 μl. As a mobile phase, (A) an aqueous solution of NaH2PO4 (0.01 M) containing 0.005 M sodium dodecyl sulphate and 0.1% triethylamine (pH 4.8 adjusted with 85% phosphoric acid) and (B) acetonitrile were used (A/B, 65:35, v/v). The flow rate was 1.0 ml/min.
The area under the concentration–time curve (AUC0‐∞) was determined using trapezoidal method and was extrapolated to infinity.

[2] = design: method as in Xie et al. (2013); conditions: 0‰, SO‐FA, 20 mg/kg fish, 71 g, 25 °C; ref Xie et al. (2013); cited from earlier work
[3] = 0‰, 25 °C, cited from earlier work
[4] = design: method as in Chang et al. (2019); conditions: 31‰, SO‐FA, 30 mg/kg fish, 615 g, ref Chang et al. (2019), cited from earlier work
[5] = cited from earlier work
[6] = design: method as in Huang et al. (2019); conditions: 0‰, 50 g, ref Huang et al. (2019), cited from earlier work; for C max / T max / t 1/2b: SO‐FA, 25 mg/kg fish
[7] = design: method as in Yanong et al. (2005); conditions: 0‰, SO, 50 mg/kg fish, 19 g, 23–25 °C; ref Yanong et al. (2005); cited from earlier work
[8] = cited from earlier work; for Primary route of excretion of FLO and its metabolites: single oral dose 10 mg/kg fish, ref Feng et al. (2008)
[9] = design: method as in Kosoff et al. (2009); conditions: 0‰, MO, 10 × 10d mg/kg fish, 49–52 g, 20–25 °C; ref Kosoff et al. (2009); cited from earlier work
[10] = design: method as in Lim et al. (2010); conditions: ref Lim et al. (2010), cited from earlier work
[11] = European seabass (Dicentrarchus labrax), plasma, oral, 10 mg/kg
[12] = MO‐FA, 10 × 10d mg/kg fish, 612 g, ref Gaunt et al. (2013)
[13] = SO‐FA, 10 mg/kg fish, ref Gaunt et al. (2012)
[14] = 30‰, SO‐FA, 10 mg/kg fish, 194 g, 11 °C, ref Martinsen et al. (1993)
[15] = 0‰, SO‐FA, 10 mg/kg fish, 98 g, 22 °C, ref Feng and Jia (2009)
[16] = 33‰, MO, 20 × 3d mg/kg fish, 380 g, 19 °C

CS(=O)(=O)c1ccc([C@@H](O)[C@@H](CF)NC(=O)C(Cl)Cl)cc1 [FLO, florfenicol]
Tmax [1, 11]: 4 h
concentration at 24 hr [1, 11]: 0.55 µg/mL
AUC ([1]; European seabass (Dicentrarchus labrax), plasma, po, 10 mg/kg): 34.7 µg·h/mL
half-life ([1]; in vivo, po, 10 mg/kg): 13 h
AUC ([1]; plasma, po, 10 mg/kg): 34.7 µg·h/mL
Maximum plasma concentration ([1]; single dietary administration 10 mg/kg, plasma, 24°C): 1.6 µg/mL and 1.64 µg/mL
C max [2]: 8.4 µg/mL
T max [2]: 5 h
t 1/2b [2]: 13.5 h
C max [3, 12]: 9.7 µg/mL
T max [3, 12]: 8 h
C max [3, 13]: 7.6 µg/mL
T max [3, 13]: 9 h
t 1/2b [3, 13]: 9.1 h
C max ([4]; 15 °C): 9.1 µg/mL
t 1/2b ([4]; 15 °C): 14.3 h
T max ([4]; 15–20 °C): 12 h
C max ([4]; 20 °C): 12.2 µg/mL
t 1/2b ([4]; 20 °C): 9.7 h
C max [5, 14]: 4 µg/mL
T max [5, 14]: 10.3 h
C max ([5]; 35‰, MO, 10 × 10d mg/kg fish, 497 g, 10 °C, ref Horsberg et al. (1996)): 8.56 µg/mL
C max ([5]; 35‰, SO‐FA, 10 mg/kg fish, 460 g, 10 °C, ref Horsberg et al. (1996)): 9.1 µg/mL
WT ([6]; MO‐FA, 25 × 3d mg/kg fish, 28 °C): 198 h
C max ([6]; 18 °C): 5.9 µg/mL
T max ([6]; 18 °C): 6.0 h
t 1/2b ([6]; 18 °C): 26.8 h
C max ([6]; 28 °C): 6.2 µg/mL
T max ([6]; 28 °C): 2.8 h
t 1/2b ([6]; 28 °C): 16.1 h
C max [7]: 2.6 µg/mL
T max [7]: 5 h
C max [8, 15]: 4.5 µg/mL
T max [8, 15]: 12 h
t 1/2b [8, 15]: 10.0 h
Primary route of excretion of FLO and its metabolites ([8]; freshwater hybrid tilapia): the bile duct
Primary route of excretion of FLO and its metabolites ([8]; seawater tilapia): mostly the gills
C max [9]: 9.2 to 15.1 µg/mL
WT [9]: 232 to 302 h
C max [10, 16]: 12.2 µg/mL
WT [10, 16]: 189 h
Tissue distribution ([10]; multiple oral 20 mg kg^−1 day^−1 for three consecutive days): higher tissue concentrations of FLO in gills than in the other tested tissue samples
